Values after ≈ are worked out from the molar mass of the structure shown.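 Cells were grown in 96-well plates and exposed to each compound for 48 hours at five concentrations; endpoints were interpolated linearly between bracketing concentrations, or set to the highest concentration if not reached. The concentration for 50% growth inhibition is given as GI50. TGI marks complete inhibition of growth.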
Assays:
Experiment in all cases: NCI anticancer screen, dose series, 48 h
[1] = system: EKVX NSCLC
[2] = system: HCT-116 colon
[3] = system: KM12 colon
[4] = system: MALME-3M melanoma
[5] = system: NCI/ADR-RES ovarian
[6] = system: SF-268 CNS
[7] = system: SN12C renal
[8] = system: SNB-19 CNS
[9] = system: HCC-2998 colon
[10] = system: MDA-N
[11] = system: SK-MEL-2 melanoma

O=C1NN(C2=NNC3(C(=O)N2)c2ccccc2-c2ccccc23)C(c2ccccc2)=N/C1=C/c1ccc(Cl)cc1
GI50 [1]: 38.7 µg/mL (≈ 71 µM) | TGI [1]: 108 µg/mL | GI50 [2]: 51.2 µg/mL (≈ 94 µM) | TGI [2]: > 150 µg/mL | GI50 [3]: 33.4 µg/mL (≈ 61.3 µM) | TGI [3]: 96.2 µg/mL | GI50 [4]: 89.9 µg/mL (≈ 165 µM) | TGI [4]: > 150 µg/mL | GI50 [5]: 53.2 µg/mL (≈ 97.7 µM) | TGI [5]: > 150 µg/mL | GI50 [6]: 61 µg/mL (≈ 112 µM) | TGI [6]: > 150 µg/mL | GI50 [7]: 53.5 µg/mL (≈ 98.2 µM) | TGI [7]: > 150 µg/mL | GI50 [8]: 28.3 µg/mL (≈ 52 µM) | TGI [8]: 59.9 µg/mL

O=c1oc2ccccc2c(O)c1Cc1ccc(Cc2c(O)c3ccccc3oc2=O)cc1
TGI [1]: > 100 µM | TGI [9]: > 100 µM | TGI [2]: > 100 µM | TGI [4]: > 100 µM | TGI [10]: > 100 µM | TGI [5]: > 100 µM | TGI [6]: > 100 µM | TGI [11]: > 100 µM | TGI [7]: > 100 µM

CCOC(=O)c1csc(NC(=O)C(C)N2CCCC2)n1 (stereo not given)
TGI [9]: > 100 µM | TGI [3]: > 100 µM | TGI [10]: > 100 µM | TGI [11]: > 100 µM | TGI [8]: > 100 µM

Reference: PubChem BioAssay (NCI)
